Measured values reported in patent publication US6964974B2, “2,3-oxidosqualene-lanosterol cyclase inhibitors” (Hoffmann-La Roche Inc., priority 2000, dated 2005).

- melting point: 73 to 74.8 °C
SMILES: CCCN(C)CCCCC1CCN(S(=O)(=O)c2ccc(C(F)(F)F)cc2)CC1 [Example 20.1, Methyl-propyl-{4-[1-(4-trifluoromethyl-benzenesulfonyl)-piperidin-4-yl]-butyl}-amine]
